Assay results reported in US12721835B2, “Anticoccidial composition comprising violacein, and use thereof” (CJ CHEILJEDANG CORPORATION, priority 2020, dated 2026).

What was measured:
Eimeria tenella [1] = assay: Intracellular protozoan propagation inhibition in MDBK cells (ITS-1 PCR); format: cell-based; conditions: MDBK cells, treated after invasion, 24 hours, read-out: Intracellular protozoan propagation inhibitory effect (%)
Procedure: (§1) In the present example, using MDBK cell line which is a representative animal cell known to cause Eimeria infection and propagation, the inhibition ability of intracellular protozoan invasion and intracellular protozoal propagation of the violacein was investigated.
100,000 MDBK cells (purchased from ATCC) were aliquoted in a 24-well plate, and then incubated at a temperature of 37° C. for 12 hours. The protozoan of Eimeria tenella was obtained similar to the method of Example 3 above. 200,000 protozoa per one well were added to wells in which cells were aliquoted, and cultured at a temperature of 41° C. for 24 hours, and then the cells were washed using PBS solution twice to remove protozoa which were not attached to the cells. Each material (violacein and anticoccidial agents, salinomycin, diclazuril and gallic acid) was treated to the cells by concentration, and further cultured at a temperature of 41° C. for 24 hours. A negative control group is a MDBK cell infected by protozoa, and a positive control group means a group in which salinomycin and diclazuril solution was incubated with the Eimeria tenella protozoan. After removing the cells and protozoa inside the cells through pipetting, DNA was extracted from the cells, and PCR was performed using E. tenella ITS-1 (Internal transcribed spacer-1) gene-specific primers. The sequences of the used primers were described in Table 9 above.
The intracellular protozoan propagation inhibition rate (%) through treatment of the material was calculated by comparing Ct values in the material treatment groups compared to the negative control group, and the result was shown in FIG. 3 and Table 10.

Eimeria tenella [2] = assay: In vivo anticoccidial activity upon single inoculation (broilers, formulated feed); design: key to ACI: ACI out of 200 = survival% + RWG% − lesion×10 − oocyst index; conditions: Eimeria tenella infection, feed 1 ppm
Procedure: An in vivo anticoccidial efficacy evaluation test was performed in an animal experiment facility in Gyeongsangnam-do, South Korea. One-day-old female Ross broilers were individually weighed and randomly divided into groups to use in an experiment. Matters and conditions for experimental design were described in Table 2.
A breeding farm was managed according to the Korean poultry breeding management guidelines. Cages and the breeding farm were cleaned and disinfected before starting the test. The temperature of […] and the humidity of 40 to 50% of the breeding farm were maintained, and it was continuously monitored.
For the feed, Korea Feed Al-choi product was used, and each material (diclazuril (Yuhan Corporation YUHAN DICLA product), salinomycin (Cheil Bio Cheilsalino-60 product), violacein (CJ Cheiljedang)) was added to the feed, respectively, at a concentration described in Table 3 below to be self-mixed. Antibiotics and supplements were not used in general feed and mixed feed, and no anticoccidial agent other than each material was added. Broilers were fed ad libitum throughout the experiment period. After putting 15 1-day-age broilers in cages randomly placed for each of the control group or test group and breeding, general feed (Al-choi product) was fed for 7 days, and then the mixed feed prepared above was ingested by dividing by control group or test group. The non-infected negative control group used 1cage, and the infected negative control group and experimental group used 2cage to progress the experiment.
The feed formulation administered to the control group (negative control group or positive control group) and test group and whether coccidiosis was induced by Eimeria tenella were described in Table 3 below.
14-day-old broilers were orally inoculated with 10,000 oocysts (90% sporulated Eimeria tenella oocysts) per individual to induce coccidiosis.
The anticoccidial efficacy by test group designed in Example 1-2 above was shown as an anticoccidial index (ACI), and the anticoccidial index was calculated by Equation 2 below. The ACI score is out of 200 points, and the higher the ACI score, the more excellent the anticoccidial ability, and when it is 120 points or more to less than 140 points, it is determined that it is effective as an anticoccidial material, and when it is 140 points or more to less than 160 points, it is determined that it is excellent as an anticoccidial material, and when it is 160 points or more, it is determined that the anticoccidial effect is very excellent (Luis Miguel De Pablos et al., Anticoccidial activity of maslinic acid against infection with Eimeria tenella in chickens, Parasitol Res, 2010). Anticoccidial index (ACI)=(survival rate after challenge inoculation(%))+(daily weight gain compared to negative control group (RWG,%))−(lesion score×10)−(fecal oocyst excretion amount index) (Equation 2) • 1) Survival rate: the number of dead individuals was recorded daily, and post mortem autopsy was performed to determine a cause of mortality, and the number of individuals who died due to causes other than coccidiosis was excluded. The survival rate (%) up to the 8th day after challenge inoculation was used for anticoccidial index calculation. The measured survival rate was described in Table 4 below. • 2) Daily weight gain: body weight was measured for each cage before challenge inoculation with a protozoan into an individual and at the 7th day after challenge inoculation, and the difference was divided by the number of days to calculate the daily weight gain (ADG, g/d). ‘Daily weight gain compared to the negative control group (RWG, %)’ which was calculated by dividing the daily weight gain (ADG, average daily gain; g/d) of each experimental group by the weight gain (ADG, g/d) of the non-infected negative control group and multiplying by 100 was used for anticoccidial index calculation. […]

Eimeria tenella [3] = assay: Protozoan (sporozoite) direct killing effect; format: cell-based; conditions: tested 1 to 500 ppm, vs PBS control
Procedure: (§2) In the present example, protozoan (sporozoite) direct killing ability evaluation was conducted against 3 representative Eimeria kinds known to be infected in most farms (E. tenella, E. acervulina, E. maxima).
(§3) A certain amount of oocysts of each coccidial protozoan was put in a tube containing glass beads and pulverized, and then to remove the crushed oocyst cell wall and other debris, internal sporocysts were purified using the percoll density gradient, and washed with PBS solution. A reagent comprising sodium taurocholic acid (Sigma aldrich, USA) and trypsin (Gibco, USA), respectively, was treated to sporocysts of Eimeria tenella, Eimeria acervulina and Eimeria maxima for excystation of the internal sporozoites, and they were incubated, and then they were washed with PBS solution once and the protozoa were obtained.
(§4) After reacting the violacein and anticoccidial agents, salinomycin, diclazuril and gallic acid (hereinafter, material) with 3 kinds of Eimeria protozoa at various concentrations of 1 to 500 ppm, respectively, only alive protozoa (sporozoites) were counted through microscopic observation. […]

Eimeria maxima = assay: Protozoan (sporozoite) direct killing effect; format: cell-based; conditions: tested 1 to 500 ppm, vs PBS control
Procedure: as §2, §3, §4

Eimeria acervulina = assay: Protozoan (sporozoite) direct killing effect; format: cell-based; conditions: tested 1 to 500 ppm, vs PBS control
Procedure: as §2, §3, §4

Eimeria tenella [4] = assay: Cell invasion inhibition of protozoa in MDBK cells (ITS-1 PCR); format: cell-based; conditions: MDBK cells, 41° C. 24 hours, read-out: Cell invasion inhibitory effect of protozoa (%)
Procedure: as §1
100,000 MDBK cells (purchased from ATCC) were aliquoted in a 24-well plate, and then incubated at a temperature of 37° C. for 12 hours. The protozoan of Eimeria tenella was obtained similar to the method of Example 3 above. 200,000 protozoa per one well were added to wells in which cells were aliquoted, and each material (violacein and anticoccidial agents, salinomycin, diclazuril and gallic acid) was treated to the cells by concentration, and cultured at a temperature of 41° C. for 24 hours. A negative control group is a MDBK cell infected by protozoa of Eimeria tenella, and a positive control group means a group in which salinomycin, diclazuril or gallic acid solution was incubated with the Eimeria tenella protozoan. […] After removing the cells and protozoa inside the cells through pipetting, DNA was extracted from the cells, and PCR was performed using E. tenella ITS-1 (Internal transcribed spacer-1) gene-specific primers. The sequences of the used primers were described in Table 9 below.
Ct values before/after washing for each material were compared and corrected with the ΔCt value of the negative control group to calculate the cell invasion inhibition rate (%) of the protozoa through treatment of each material, and the result was shown in FIG. 3 and Table 10 below.

Row | SMILES | inhibition at 0.5 ppm (Eimeria tenella [1]; 0.5 ppm) | inhibition at 1 ppm (Eimeria tenella [1]; 1 ppm) | ADG(g/d) after challenge inoculation (Eimeria tenella [2]) | Oocyst index (Eimeria tenella [2]) | Lesion score (Eimeria tenella [2]; appendix, scale 0-4, 8th day) | Oocyst excretion amount/g (Eimeria tenella [2]; feces day 6-8) | Lesion index (Eimeria tenella [2]; lesion score x 10) | ACI (Eimeria tenella [2]; out of 200 points) | Survival rate after challenge inoculation (%) (Eimeria tenella [2]; up to 8th day) | RWG(%) (Eimeria tenella [2]; vs non-infected negative control) | Minimum concentration for killing 50% protozoa (sporozoites) (ppm) (Eimeria tenella [3]) | Minimum concentration for killing 50% protozoa (sporozoites) (ppm) (Eimeria maxima) | Minimum concentration for killing 50% protozoa (sporozoites) (ppm) (Eimeria acervulina) | inhibition at 0.5 ppm (Eimeria tenella [4]; 0.5 ppm) | inhibition at 1 ppm (Eimeria tenella [4]; 1 ppm) | inhibition at 5 ppm (Eimeria tenella [1]; 5 ppm) | inhibition at 10 ppm (Eimeria tenella [1]; 10 ppm) | inhibition at 5 ppm (Eimeria tenella [4]; 5 ppm) | inhibition at 10 ppm (Eimeria tenella [4]; 10 ppm)
1 | N#CC(c1ccc(Cl)cc1)c1c(Cl)cc(-n2ncc(=O)[nH]c2=O)cc1Cl (stereo not shown) [Diclazuril, diclazuril, reference compound] | 45.9% | 52.9% | 61 g/day | 10 | 1.7 | 1.3e+08 g⁻¹ | 17 | 169 | 100% | 96% | >500 ppm | >500 ppm | 500 ppm | 0% | 6.3% |  |  |  | 
2 | O=C(O)c1cc(O)c(O)c(O)c1 [Gallic acid, gallic acid] |  |  |  |  |  |  |  |  |  |  | >500 ppm | >500 ppm | >500 ppm |  |  | 0% | 0% | 76% | 90.1%
